The term IC50 denotes the concentration needed to halve the response being measured. A lower IC50 goes with greater potency in that assay.

Structures are written as SMILES.

One assay deals with PI3Kδ (Homo sapiens, UniProt O00329). In words: PI3K enzyme inhibitory activity in the cell free assay (ADP-Glo Kinase Assay), PI3K delta. Background: ADP-Glo first removes unused ATP, then detects ADP through luciferase.
For the next assay, the target named is PI3Kγ (Homo sapiens, UniProt P48736). The assay can be described thus: PI3K enzyme inhibitory activity in the cell free assay (ADP-Glo Kinase Assay), PI3K gamma.
In the next assay the target is PI3Kα (Homo sapiens, UniProt P42336). The assay can be described thus: PI3K enzyme inhibitory activity in the cell free assay (ADP-Glo Kinase Assay), PI3K alpha.
For another assay, the target named is PI3Kβ (Homo sapiens, UniProt P42338). In words: PI3K enzyme inhibitory activity in the cell free assay (ADP-Glo Kinase Assay), PI3K beta.
Sequence of PI3Kβ (P42338 whole entry): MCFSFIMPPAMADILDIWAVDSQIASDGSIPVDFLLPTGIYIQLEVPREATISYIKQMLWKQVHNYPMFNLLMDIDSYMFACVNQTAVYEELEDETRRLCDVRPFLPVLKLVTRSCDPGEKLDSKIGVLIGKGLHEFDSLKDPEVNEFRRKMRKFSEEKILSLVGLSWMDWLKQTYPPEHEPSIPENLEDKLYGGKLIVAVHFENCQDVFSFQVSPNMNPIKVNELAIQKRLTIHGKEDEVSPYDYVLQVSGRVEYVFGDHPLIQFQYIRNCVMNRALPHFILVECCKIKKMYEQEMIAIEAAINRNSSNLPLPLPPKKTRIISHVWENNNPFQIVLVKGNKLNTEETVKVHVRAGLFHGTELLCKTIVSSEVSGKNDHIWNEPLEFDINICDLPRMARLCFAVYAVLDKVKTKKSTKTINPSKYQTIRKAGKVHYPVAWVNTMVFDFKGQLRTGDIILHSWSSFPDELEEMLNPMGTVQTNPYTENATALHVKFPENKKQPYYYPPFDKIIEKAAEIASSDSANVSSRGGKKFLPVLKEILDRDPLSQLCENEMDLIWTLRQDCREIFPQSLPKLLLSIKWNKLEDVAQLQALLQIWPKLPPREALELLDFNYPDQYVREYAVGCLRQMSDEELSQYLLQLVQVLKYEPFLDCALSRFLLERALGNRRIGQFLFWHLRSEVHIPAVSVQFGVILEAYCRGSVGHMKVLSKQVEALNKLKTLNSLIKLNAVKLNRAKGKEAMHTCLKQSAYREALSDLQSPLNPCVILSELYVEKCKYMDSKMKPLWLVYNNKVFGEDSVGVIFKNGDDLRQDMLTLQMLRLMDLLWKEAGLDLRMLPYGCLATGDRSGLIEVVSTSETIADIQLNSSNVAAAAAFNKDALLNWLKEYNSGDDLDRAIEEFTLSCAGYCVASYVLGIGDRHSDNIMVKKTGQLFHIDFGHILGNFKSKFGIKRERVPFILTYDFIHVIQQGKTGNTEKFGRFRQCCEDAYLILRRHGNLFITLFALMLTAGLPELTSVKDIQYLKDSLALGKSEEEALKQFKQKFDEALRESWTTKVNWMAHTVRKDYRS
Sequence of PI3Kβ (P27986 whole entry partner): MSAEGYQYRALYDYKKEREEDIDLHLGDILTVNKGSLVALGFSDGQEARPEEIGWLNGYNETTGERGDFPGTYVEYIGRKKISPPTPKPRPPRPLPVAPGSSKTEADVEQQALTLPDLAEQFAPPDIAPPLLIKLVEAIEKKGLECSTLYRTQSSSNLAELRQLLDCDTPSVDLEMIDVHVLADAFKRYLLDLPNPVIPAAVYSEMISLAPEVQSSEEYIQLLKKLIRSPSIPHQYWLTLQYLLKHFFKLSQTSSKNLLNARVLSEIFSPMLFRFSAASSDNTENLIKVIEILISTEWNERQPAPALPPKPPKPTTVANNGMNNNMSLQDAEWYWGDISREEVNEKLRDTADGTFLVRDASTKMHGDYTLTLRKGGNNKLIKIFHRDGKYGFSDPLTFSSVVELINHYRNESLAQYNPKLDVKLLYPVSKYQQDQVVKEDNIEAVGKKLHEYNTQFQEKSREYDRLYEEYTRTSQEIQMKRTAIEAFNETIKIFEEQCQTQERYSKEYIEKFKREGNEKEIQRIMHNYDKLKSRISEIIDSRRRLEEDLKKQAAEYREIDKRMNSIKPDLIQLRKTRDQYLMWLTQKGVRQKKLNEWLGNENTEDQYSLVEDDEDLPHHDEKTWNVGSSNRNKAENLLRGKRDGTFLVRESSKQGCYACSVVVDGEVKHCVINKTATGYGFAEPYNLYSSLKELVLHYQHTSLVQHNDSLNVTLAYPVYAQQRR

Sequence of PI3Kα (P42336 whole entry): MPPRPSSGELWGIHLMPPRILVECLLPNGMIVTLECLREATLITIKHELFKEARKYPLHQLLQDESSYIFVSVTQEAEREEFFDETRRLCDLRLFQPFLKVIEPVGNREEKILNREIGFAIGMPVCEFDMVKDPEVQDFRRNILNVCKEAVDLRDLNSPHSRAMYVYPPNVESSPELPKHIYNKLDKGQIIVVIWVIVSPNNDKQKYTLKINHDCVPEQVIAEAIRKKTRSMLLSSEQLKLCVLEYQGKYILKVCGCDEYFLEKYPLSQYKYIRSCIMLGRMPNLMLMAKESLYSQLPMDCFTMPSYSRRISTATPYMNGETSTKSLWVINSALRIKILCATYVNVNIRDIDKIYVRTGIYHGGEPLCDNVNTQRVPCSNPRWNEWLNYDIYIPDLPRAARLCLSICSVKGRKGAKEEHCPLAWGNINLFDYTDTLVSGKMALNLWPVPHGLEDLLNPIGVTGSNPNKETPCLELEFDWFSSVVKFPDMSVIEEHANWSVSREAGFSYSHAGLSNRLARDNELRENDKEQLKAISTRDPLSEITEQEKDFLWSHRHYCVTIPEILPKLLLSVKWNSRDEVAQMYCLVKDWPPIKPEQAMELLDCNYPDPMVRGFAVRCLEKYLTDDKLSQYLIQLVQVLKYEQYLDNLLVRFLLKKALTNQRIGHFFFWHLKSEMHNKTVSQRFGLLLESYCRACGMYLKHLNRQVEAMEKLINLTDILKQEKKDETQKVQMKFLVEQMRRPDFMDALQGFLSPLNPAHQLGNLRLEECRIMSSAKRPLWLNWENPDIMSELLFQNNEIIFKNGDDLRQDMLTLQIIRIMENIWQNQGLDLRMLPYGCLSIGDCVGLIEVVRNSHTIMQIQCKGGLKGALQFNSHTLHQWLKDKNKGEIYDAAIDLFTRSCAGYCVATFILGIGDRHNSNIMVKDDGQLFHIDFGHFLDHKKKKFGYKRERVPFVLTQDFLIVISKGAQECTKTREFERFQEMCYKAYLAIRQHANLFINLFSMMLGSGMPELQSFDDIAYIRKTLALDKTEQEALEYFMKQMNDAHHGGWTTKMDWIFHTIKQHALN
Sequence of PI3Kα (P27986 whole entry partner): as the sequence (P27986 whole entry partner) above
Sequence of PI3Kδ (O00329 whole entry): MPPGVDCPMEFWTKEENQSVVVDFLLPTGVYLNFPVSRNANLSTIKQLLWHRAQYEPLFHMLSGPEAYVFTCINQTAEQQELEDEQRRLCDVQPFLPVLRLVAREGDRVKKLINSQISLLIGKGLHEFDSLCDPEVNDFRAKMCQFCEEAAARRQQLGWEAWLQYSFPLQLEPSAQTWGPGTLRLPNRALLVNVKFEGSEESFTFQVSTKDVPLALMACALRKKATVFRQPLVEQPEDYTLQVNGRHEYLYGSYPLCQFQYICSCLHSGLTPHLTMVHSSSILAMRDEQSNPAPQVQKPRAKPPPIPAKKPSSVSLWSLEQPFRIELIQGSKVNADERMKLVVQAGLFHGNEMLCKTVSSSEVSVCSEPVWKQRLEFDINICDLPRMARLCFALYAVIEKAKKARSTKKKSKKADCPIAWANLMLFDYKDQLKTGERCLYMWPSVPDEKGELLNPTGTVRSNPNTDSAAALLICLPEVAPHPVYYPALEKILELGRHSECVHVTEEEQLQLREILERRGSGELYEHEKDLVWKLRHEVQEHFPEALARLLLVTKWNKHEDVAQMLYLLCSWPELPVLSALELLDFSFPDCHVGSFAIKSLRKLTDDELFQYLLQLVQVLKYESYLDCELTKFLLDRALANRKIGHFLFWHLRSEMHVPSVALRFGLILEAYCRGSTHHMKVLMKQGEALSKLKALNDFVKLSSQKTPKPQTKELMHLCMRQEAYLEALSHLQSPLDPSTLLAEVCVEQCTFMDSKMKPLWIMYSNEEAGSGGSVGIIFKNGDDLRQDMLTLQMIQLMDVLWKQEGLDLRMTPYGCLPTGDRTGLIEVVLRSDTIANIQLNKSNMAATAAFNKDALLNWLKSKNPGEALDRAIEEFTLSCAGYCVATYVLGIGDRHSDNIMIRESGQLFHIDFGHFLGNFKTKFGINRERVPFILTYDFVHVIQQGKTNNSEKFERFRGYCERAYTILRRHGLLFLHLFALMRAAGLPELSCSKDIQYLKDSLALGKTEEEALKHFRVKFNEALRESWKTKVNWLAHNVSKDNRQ
Sequence of PI3Kδ (P27986 whole entry partner): as the sequence (P27986 whole entry partner) above
Sequence of PI3Kγ (P48736 whole entry): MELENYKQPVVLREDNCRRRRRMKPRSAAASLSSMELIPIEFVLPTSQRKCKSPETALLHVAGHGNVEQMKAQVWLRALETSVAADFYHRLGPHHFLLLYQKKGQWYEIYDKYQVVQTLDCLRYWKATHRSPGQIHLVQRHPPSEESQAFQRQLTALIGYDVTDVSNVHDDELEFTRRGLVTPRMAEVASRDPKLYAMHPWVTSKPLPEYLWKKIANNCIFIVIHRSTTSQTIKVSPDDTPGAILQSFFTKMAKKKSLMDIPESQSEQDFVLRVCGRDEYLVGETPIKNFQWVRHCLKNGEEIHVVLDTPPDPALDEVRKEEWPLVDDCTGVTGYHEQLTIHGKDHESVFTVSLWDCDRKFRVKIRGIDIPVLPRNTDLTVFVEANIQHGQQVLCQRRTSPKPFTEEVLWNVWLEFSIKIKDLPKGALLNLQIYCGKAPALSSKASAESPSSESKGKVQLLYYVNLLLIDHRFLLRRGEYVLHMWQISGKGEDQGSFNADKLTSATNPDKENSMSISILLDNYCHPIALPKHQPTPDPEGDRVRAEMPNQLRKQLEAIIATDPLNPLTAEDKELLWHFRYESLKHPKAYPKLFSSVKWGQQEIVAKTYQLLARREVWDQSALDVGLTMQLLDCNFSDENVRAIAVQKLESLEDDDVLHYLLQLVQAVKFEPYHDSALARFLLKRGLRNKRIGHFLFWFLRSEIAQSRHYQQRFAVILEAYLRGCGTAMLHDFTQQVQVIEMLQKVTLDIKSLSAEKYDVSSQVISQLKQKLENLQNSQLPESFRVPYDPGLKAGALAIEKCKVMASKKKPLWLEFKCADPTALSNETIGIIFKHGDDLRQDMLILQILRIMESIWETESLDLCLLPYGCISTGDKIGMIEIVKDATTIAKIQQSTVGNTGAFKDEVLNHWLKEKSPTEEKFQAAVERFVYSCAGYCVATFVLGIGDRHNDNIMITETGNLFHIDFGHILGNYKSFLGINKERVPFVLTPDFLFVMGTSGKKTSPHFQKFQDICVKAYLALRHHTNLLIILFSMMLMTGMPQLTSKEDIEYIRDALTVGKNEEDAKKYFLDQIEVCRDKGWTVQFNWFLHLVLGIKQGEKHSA

Turning to `CC(c1cc(=O)n(Cc2ccccc2)nc1-c1ccccc1)n1nc(-c2cc(O)cc(F)c2)c2c(N)ncnc21` (centres unmarked) [Example 1, 5-{1-[4-amino-3-(3-fluoro-5-hydroxyphenyl)-1H-pyrazolo[3,4-d]pyrimidin-1-yl]ethyl}-2-benzyl-6-phenyl-2,3-dihydropyridazin-3-one], the IC50 was 0.01 to 1 µM at PI3Kδ, more than 1 µM against PI3Kγ, more than 1 µM at PI3Kα and 0.01 to 1 µM against PI3Kβ.
For `CC(c1cc(=O)n(C)nc1-c1ccccc1)n1nc(-c2cc(O)cc(F)c2)c2c(N)ncnc21` (centres unmarked) [Example 2, 5-{1-[4-amino-3-(3-fluoro-5-hydroxyphenyl)-1H-pyrazolo[3,4-d]pyrimidin-1-yl]ethyl}-2-methyl-6-phenyl-2,3-dihydropyridazin-3-one], the IC50 on PI3Kδ was 0.01 to 1 µM; on PI3Kγ, 0.01 to 1 µM; on PI3Kα, more than 1 µM; on PI3Kβ, 0.01 to 1 µM.
As for `CC(C)n1nc(-c2ccccc2)c(C(C)n2nc(-c3cc(O)cc(F)c3)c3c(N)ncnc32)cc1=O` (centres unmarked) [Example 3, 5-{1-[4-amino-3-(3-fluoro-5-hydroxyphenyl)-1H-pyrazolo[3,4-d]pyrimidin-1-yl]ethyl}-6-phenyl-2-(propan-2-yl)-2,3-dihydropyridazin-3-one], the IC50 is 0.01 to 1 µM at PI3Kδ, more than 1 µM on PI3Kγ, more than 1 µM against PI3Kα and 0.01 to 1 µM against PI3Kβ.
Regarding `CC(c1cc(=O)n(CC2CC2)nc1-c1ccccc1)n1nc(-c2cc(O)cc(F)c2)c2c(N)ncnc21` (centres unmarked) [Example 4, 5-{1-[4-amino-3-(3-fluoro-5-hydroxyphenyl)-1H-pyrazolo[3,4-d]pyrimidin-1-yl]ethyl}-2-(cyclopropylmethyl)-6-phenyl-2,3-dihydropyridazin-3-one], the IC50 is 0.01 to 1 µM on PI3Kδ, more than 1 µM against PI3Kγ, more than 1 µM against PI3Kα and 0.01 to 1 µM against PI3Kβ.
For the molecule `CC(c1cc(=O)n(-c2ccccc2)nc1-c1ccccc1)n1nc(-c2cc(O)cc(F)c2)c2c(N)ncnc21` (centres unmarked) [Example 5, 5-{1-[4-amino-3-(3-fluoro-5-hydroxyphenyl)-1H-pyrazolo[3,4-d]pyrimidin-1-yl]ethyl}-2,6-diphenyl-2,3-dihydropyridazin-3-one], the IC50 against PI3Kδ is 0.01 to 1 µM; at PI3Kγ, 0.01 to 1 µM; against PI3Kα, more than 1 µM; against PI3Kβ, 0.01 to 1 µM.
For `CC(c1cc(=O)n(Cc2ccccn2)nc1-c1ccccc1)n1nc(-c2cc(O)cc(F)c2)c2c(N)ncnc21` (centres unmarked) [Example 6, 5-{1-[4-amino-3-(3-fluoro-5-hydroxyphenyl)-1H-pyrazolo[3,4-d]pyrimidin-1-yl]ethyl}-6-phenyl-2-(pyridin-2-ylmethyl)-2,3-dihydropyridazin-3-one], the IC50 is 0.01 to 1 µM on PI3Kδ, more than 1 µM against PI3Kγ, more than 1 µM at PI3Kα and 0.01 to 1 µM at PI3Kβ.
As for `CC(c1cnn(Cc2ccccc2)c(=O)c1)n1nc(-c2cc(O)cc(F)c2)c2c(N)ncnc21` (centres unmarked) [Example 7, 5-{1-[4-amino-3-(3-fluoro-5-hydroxyphenyl)-1H-pyrazolo[3,4-d]pyrimidin-1-yl]ethyl}-2-benzyl-2,3-dihydropyridazin-3-one], the IC50 on PI3Kδ was less than 0.01 µM; against PI3Kγ, 0.01 to 1 µM; on PI3Kα it was 0.01 to 1 µM; against PI3Kβ it was less than 0.01 µM.
On to `CC(c1cnn(-c2ccccc2)c(=O)c1)n1nc(-c2cc(O)cc(F)c2)c2c(N)ncnc21` (centres unmarked) [Example 8, 5-{1-[4-amino-3-(3-fluoro-5-hydroxyphenyl)-1H-pyrazolo[3,4-d]pyrimidin-1-yl]ethyl}-2-phenyl-2,3-dihydropyridazin-3-one], for which the IC50 against PI3Kδ is less than 0.01 µM; at PI3Kγ it was 0.01 to 1 µM; against PI3Kα, 0.01 to 1 µM; against PI3Kβ, less than 0.01 µM.
As for `CC(c1cnn(C)c(=O)c1)n1nc(-c2cc(O)cc(F)c2)c2c(N)ncnc21` (centres unmarked) [Example 9, 5-{1-[4-amino-3-(3-fluoro-5-hydroxyphenyl)-1H-pyrazolo[3,4-d]pyrimidin-1-yl]ethyl}-2-methyl-2,3-dihydropyridazin-3-one], the IC50 at PI3Kδ was less than 0.01 µM; on PI3Kγ it was 0.01 to 1 µM; at PI3Kα it was 0.01 to 1 µM; against PI3Kβ it was 0.01 to 1 µM.
Take `CC(c1cnn(C)c(=O)c1-c1ccccc1)n1nc(-c2cc(O)cc(F)c2)c2c(N)ncnc21` (centres unmarked) [Example 12, 5-{1-[4-amino-3-(3-fluoro-5-hydroxyphenyl)-1H-pyrazolo[3,4-d]pyrimidin-1-yl]ethyl}-2-methyl-4-phenyl-2,3-dihydropyridazin-3-one]: the IC50 at PI3Kδ was less than 0.01 µM; against PI3Kγ, 0.01 to 1 µM; at PI3Kα, more than 1 µM; against PI3Kβ, 0.01 to 1 µM.
For `CC(c1cnn(-c2ccccc2)c(=O)c1-c1ccccc1)n1nc(-c2cc(O)cc(F)c2)c2c(N)ncnc21` (centres unmarked) [Example 13, 5-{1-[4-amino-3-(3-fluoro-5-hydroxyphenyl)-1H-pyrazolo[3,4-d]pyrimidin-1-yl]ethyl}-2,4-diphenyl-2,3-dihydropyridazin-3-one], the IC50 against PI3Kδ, against PI3Kγ, on PI3Kα and on PI3Kβ was 0.01 to 1 µM each time.
In the case of `CC(c1cnn(CCN2CCOCC2)c(=O)c1-c1ccccc1)n1nc(-c2cc(O)cc(F)c2)c2c(N)ncnc21` (centres unmarked) [Example 14, 5-{1-[4-amino-3-(3-fluoro-5-hydroxyphenyl)-1H-pyrazolo[3,4-d]pyrimidin-1-yl]ethyl}-2-[2-(morpholin-4-yl)ethyl]-4-phenyl-2,3-dihydropyridazin-3-one], the IC50 at PI3Kδ is less than 0.01 µM; against PI3Kγ, more than 1 µM; against PI3Kα, more than 1 µM; on PI3Kβ it was more than 1 µM.
Consider `CC(c1cnn(-c2cccnc2)c(=O)c1-c1ccccc1)n1nc(-c2cc(O)cc(F)c2)c2c(N)ncnc21` (centres unmarked) [Example 15, 5-{1-[4-amino-3-(3-fluoro-5-hydroxyphenyl)-1H-pyrazolo[3,4-d]pyrimidin-1-yl]ethyl}-4-phenyl-2-(pyridin-3-yl)-2,3-dihydropyridazin-3-one], for which the IC50 at PI3Kδ was less than 0.01 µM; at PI3Kγ it was 0.01 to 1 µM; against PI3Kα, more than 1 µM; against PI3Kβ it was 0.01 to 1 µM.
Consider `Nc1ncnc2c1c(-c1cc(O)cc(F)c1)nn2Cc1cnn(Cc2ccccc2)c(=O)c1` [Example 18, 5-{[4-amino-3-(3-fluoro-5-hydroxyphenyl)-1H-pyrazolo[3,4-d]pyrimidin-1-yl]methyl}-2-benzyl-2,3-dihydropyridazin-3-one], for which the IC50 against PI3Kδ was less than 0.01 µM; against PI3Kγ it was 0.01 to 1 µM; on PI3Kα it was 0.01 to 1 µM; against PI3Kβ, 0.01 to 1 µM.
As for `CC(Nc1ncnc(N)c1C#N)c1cc(=O)n(Cc2ccccc2)nc1-c1ccccc1` (centres unmarked) [Example 19, 4-amino-6-{[1-(1-benzyl-6-oxo-3-phenyl-1,6-dihydropyridazin-4-yl)ethyl]amino}pyrimidine-5-carbonitrile], the IC50 against PI3Kδ, against PI3Kγ, on PI3Kα and on PI3Kβ was more than 1 µM throughout.
Consider `CC(Nc1ncnc(N)c1C#N)c1cc(=O)n(C)nc1-c1ccccc1` (centres unmarked) [Example 20, 4-amino-6-(1-(1-methyl-6-oxo-3-phenyl-1,6-dihydropyridazin-4-yl)ethylamino)pyrimidine-5-carbonitrile], for which the IC50 against PI3Kδ was 0.01 to 1 µM; against PI3Kγ, more than 1 µM; at PI3Kα it was more than 1 µM; at PI3Kβ, more than 1 µM.
With `CC(Nc1ncnc(N)c1C#N)c1cc(=O)n(C(C)C)nc1-c1ccccc1` (centres unmarked) [Example 21, 4-amino-6-({1-[6-oxo-3-phenyl-1-(propan-2-yl)-1,6-dihydropyridazin-4-yl]ethyl}amino)pyrimidine-5-carbonitrile], the IC50 against PI3Kδ, at PI3Kγ, against PI3Kα and against PI3Kβ was more than 1 µM in each case.
In the case of `CC(Nc1ncnc(N)c1C#N)c1cc(=O)n(CC2CC2)nc1-c1ccccc1` (centres unmarked) [Example 22, 4-amino-6-({1-[1-(cyclopropylmethyl)-6-oxo-3-phenyl-1,6-dihydropyridazin-4-yl]ethyl}amino)pyrimidine-5-carbonitrile], the IC50 on PI3Kδ, against PI3Kγ, on PI3Kα and against PI3Kβ was more than 1 µM in each case.
Take `CC(Nc1ncnc(N)c1C#N)c1cc(=O)n(-c2ccccc2)nc1-c1ccccc1` (centres unmarked) [Example 23, 4-amino-6-{[1-(6-oxo-1,3-diphenyl-1,6-dihydropyridazin-4-yl)ethyl]amino}pyrimidine-5-carbonitrile]: the 50% inhibitory concentration (IC50) on PI3Kδ, against PI3Kγ, at PI3Kα and on PI3Kβ was more than 1 µM throughout.
Take `CC(Nc1ncnc2[nH]cnc12)c1cc(=O)n(Cc2ccccc2)nc1-c1ccccc1` (centres unmarked) [Example 24, 2-benzyl-6-phenyl-5-{1-[(9H-purin-6-yl)amino]ethyl}-2,3-dihydropyridazin-3-one]: the IC50 against PI3Kδ, against PI3Kγ, against PI3Kα and against PI3Kβ was more than 1 µM throughout.

For the origin of these results see patent US9745308B2, “Pyridazinone derivatives as phoshoinositide 3-kinases inhibitors” (CHIESI FARMACEUTICI S.p.A., priority 2014, dated 2017).
